Where two headings read alike, the source gives them in different places. Bridge positions count the residues as written; N and C are the ends. Peptide text beside a SMILES is read from it. * marks the point of attachment. X1 = CN(C)c1ccc2c(c1)Oc1cc(N(C)C)ccc1C21OC(=O)c2cc(NC(=O)C*)ccc21

The target in data set [1] is T1, ERα/LBD (ERα302–552) (Homo sapiens, UniProt P03372).
T1 construct: Recombinant ERα/LBD (ERα^302–552) was prepared as previously reported; made in house; host or cells: Escherichia coli BL21-CodonPlus-RP
T1 sequence (P03372 302-552): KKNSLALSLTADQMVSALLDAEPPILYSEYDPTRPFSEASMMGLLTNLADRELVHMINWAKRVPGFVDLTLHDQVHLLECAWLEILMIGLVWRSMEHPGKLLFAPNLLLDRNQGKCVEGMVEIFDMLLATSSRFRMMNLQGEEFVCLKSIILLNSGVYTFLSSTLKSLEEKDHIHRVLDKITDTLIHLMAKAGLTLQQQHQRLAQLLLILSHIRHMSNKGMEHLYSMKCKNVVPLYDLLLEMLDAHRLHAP
The data set is described as follows: Fluorescence polarization (FP) direct binding of fluorescently labeled peptides to ERα/LBD. The protocol:
The binding activity of cHLH‐ERα was examined by fluorescence polarization (FP) analysis.^[ [26], [29] ^] The cHLH peptides were labeled with tetramethylrhodamine (TMR) to provide the fluorescent cHLH peptide TMR‐cHLH‐ERα, and fluorescent TMR‐YT1‐RS as a negative control (Figure 1, Figure S2, Supporting Information).
1. Protein Expression and Purification
The plasmid encoding the LBD domain of ERα (ERα302-552), was prepared from the plasmid pF1KB7810 (Kazusa DNA Res. Inst. ) encoding the full length of Estrogen Receptor α as described by using pET -28a(+)vector [1]. […]
4. Fluorescence Polarization […]
Tris-HCl (pH 8.0), 25 mM NaCl, 10%(v/v) Glycerol, 1 mM TCEP as described. The concentration of FL-SRC1Box2 labeled with Fluorescein and TMR-cHLH-ERα and YT1-RS were determined from the absorption of Fluorescein or Tetramethylrhodamine. The respective peptide was incubated with ERα-LBD for 30 min in 20 mM Tris-HCl (pH 8.0), 25 mM NaCl with 1 mM 17β-estradiol, and the mixture was transferred into a 384-well microtiter well (Non-binding, Black, greiner bio -one) and the fluorescence polarization was measured on a spectrofluorometer (SpectraMax iD5, Molecular Devices) at 20 °C. The KD values were analyzed via a quadratic binding equation (Fig S5A, S5B) with the data fit to calculate by using KaleidaGraph 4.0 as described elsewhere. […]
(Fluorescence polarisation rises when a labelled molecule tumbles more slowly, as on binding a larger partner.)

For data set [2], the system named is MCF‐7 breast cancer cells. The data set is described as follows: Live cell confocal laser microscopy of TMR‐labeled peptides (cell membrane permeability). The settings on record: MCF‐7 cells, 3 μM TMR‐labeled peptide.

In data set [1], `CC(C)C[C@@H]1NC(=O)[C@H](C)NC(=O)[C@H](C)NC(=O)[C@H](CC(C)C)NC(=O)[C@H](CCCCN)NC(=O)CNC(=O)CNC(=O)CNC(=O)CNC(=O)CNC(=O)CNC(=O)CNC(=O)[C@H](CCC(=O)O)NC(=O)[C@H](CC(C)C)NC(=O)[C@H](CCCNC(=N)N)NC(=O)[C@H](CCCNC(=N)N)NC(=O)[C@H](CC(C)C)NC(=O)[C@H](CCC(=O)O)NC(=O)[C@H](CCCNC(=N)N)NC(=O)[C@H](CCC(=O)O)NC(=O)[C@H](CC(C)C)NC(=O)[C@H](CCCNC(=N)N)NC(=O)[C@H](CCCNC(=N)N)NC(=O)[C@H](CC(C)C)NC(=O)[C@H](CCC(=O)O)NC(=O)[C@H](CCCNC(=N)N)NC(=O)[C@H](CSCC(=O)Nc2ccc3c(c2)C(=O)OC32c3ccc(N(C)C)cc3Oc3cc(N(C)C)ccc32)NC(=O)CNC(=O)CSC[C@@H](C(N)=O)NC(=O)[C@H](Cc2ccc(O)cc2)NC(=O)[C@H](C)NC(=O)[C@H](CCCCN)NC(=O)[C@H](CC(C)C)NC(=O)[C@H](CC(C)C)NC(=O)[C@H](CC(C)C)NC(=O)[C@H](CC(C)C)NC(=O)[C@H](CCCCN)NC(=O)[C@H](CC(C)C)NC(=O)[C@H](CCCCN)NC1=O` [TMR‐cHLH‐ERα] ({CH2CO}-GC(X1)RELRRLERELRRLEGGGGGGGKLAALKLKLLLLKAYC-NH2; thioether N-39) returned a Kd of 0.285 µM.

As to “CH3CO-C(FL)QLLTERHKILHRLLQEGSPSD-NH2 (Ac-C(fluorescein)QLLTERHKILHRLLQEGSPSD-NH2; not fully specified; printed as CH3CO-C(FL)QLLTERHKILHRLLQEGSPSD-NH2) [FL‐SRC1Box2, fluorescently labeled SRC1 box 2 peptide with the LXXLL motif, FP tracer, reference compound]”, in data set [1] (FP, 20 nM labeled peptide, in the presence of 17β‐estradiol, 20 mM Tris-HCl pH 8.0, 25 mM NaCl, 30 min, 20 °C, quadratic binding equation (Fig S5A), read-out: K D value, binding to ERα/LBD), the Kd was 7.8 µM.

On to `CC(C)C[C@@H]1NC(=O)[C@H](C)NC(=O)[C@H](C)NC(=O)[C@H](CC(C)C)NC(=O)[C@H](CCCCN)NC(=O)[C@H](C)NC(=O)[C@H](CCCCN)NC(=O)[C@H](CC(C)C)NC(=O)[C@H](C)NC(=O)[C@H](C)NC(=O)[C@H](CC(C)C)NC(=O)[C@H](CCCCN)NC(=O)CNC(=O)CNC(=O)CNC(=O)CNC(=O)CNC(=O)CNC(=O)CNC(=O)[C@H](CCC(=O)O)NC(=O)[C@H](CC(C)C)NC(=O)[C@H](CCCNC(=N)N)NC(=O)[C@H](CCCNC(=N)N)NC(=O)[C@H](CC(C)C)NC(=O)[C@H](CCC(=O)O)NC(=O)[C@H](CCCNC(=N)N)NC(=O)[C@H](CCC(=O)O)NC(=O)[C@H](CC(C)C)NC(=O)[C@H](CCCNC(=N)N)NC(=O)[C@H](CCCNC(=N)N)NC(=O)[C@H](CC(C)C)NC(=O)[C@H](CCC(=O)O)NC(=O)[C@H](CCCNC(=N)N)NC(=O)[C@H](CSCC(=O)Nc2ccc3c(c2)C(=O)OC32c3ccc(N(C)C)cc3Oc3cc(N(C)C)ccc32)NC(=O)CNC(=O)CSC[C@@H](C(N)=O)NC(=O)[C@H](Cc2ccc(O)cc2)NC(=O)[C@H](C)NC(=O)[C@H](CCCCN)NC1=O` [TMR‐YT1‐RS] ({CH2CO}-GC(X1)RELRRLERELRRLEGGGGGGGKLAALKAKLAALKAYC-NH2; thioether N-39), for which the “cell membrane permeability, confocal laser microscopy, 4 °C” value in data set [2] (4 °C (pre‐chilled medium), fluorescence imaging) is “showed cell membrane permeability”. Besides, the “cell membrane permeability, confocal laser microscopy, 37 °C” value in data set [2] (5‐min incubation, 37 °C, 5% CO2, nuclei stained with Hoechst 33 342, fluorescence imaging) was “showed cell membrane permeability”.
